Reference: US11679107B2 (Eisai R&D Management Co., Ltd., priority 2018, dated 2023)
Where two headings read alike, the source gives them in different places.

What was measured:
SF3b complexes = biological target: T1, SF3b complexes (Homo sapiens, UniProt O75533+Q7RTV0); test: Scintillation proximity assay (SPA) with [3H]-labelled pladienolide probe; type: binding; settings: SF3B1 (WT); geometric mean; read-out: SPA-ATS GMean IC50 (nM) SF3B1 (WT)
T1 construct: endogenous in cells; host or cells: Nuclear extracts; A HeLa S3 extract preparation is described for the in vitro splicing assay
Summary of the method: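 SF3b complexes captured from nuclear extracts on anti-SF3B1 antibody SPA beads; test compounds pre-incubated 30 min before 2.5 nM [3H]-pladienolide probe added, then 30 min incubation. Bound probe read by scintillation; values from non-linear regression of concentration–response curves.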

[1] = tested on: Ad2 variant pre-mRNAs spliced in HeLa S3 nuclear extracts; test: In vitro splicing assay (IVS), RT-qPCR of spliced product; type: biochemical; settings: for IC50: geometric mean; for Ratio Ad2.1/2.2: ratio of IVS IC50 Ad2.1 to Ad2.2
Summary of the method: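 Read-out is one-step TaqMan RT-qPCR of spliced Ad2 mRNA with Ftz as reference, normalized to DMSO and fit by non-linear regression. Reactions held HeLa S3 nuclear extract, 2 ng Ad2-derived pre-mRNA and test compound, with 15 min preincubation. Splicing was started with ATP-containing activation buffer and run 90 min at 30 °C.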

[2] = tested on: NCI-H1568 cells (high MCL1); test: Cell proliferation and viability, CellTiter-Glo, 72 hours; type: cell-based; settings: for GI50: geometric mean
Summary of the method: (§1)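 ATP luminescence (CellTiter-Glo) was measured 72 h after treatment with compound at 10 μM–100 pM (11 points, half-log) in 0.1% DMSO. The Panc line was grown in RPMI-1640 plus insulin and 15% FBS, the other in 10% FBS. Data were normalised to time zero and vehicle controls, where −100% is cidal and 0% static.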

[3] = tested on: Panc 05.04 cells (SF3b K700E mutant); test: as above; type: cell-based; settings: for GI50: geometric mean
Summary of the method: as §1

[4] = Ad2.1 pre-mRNA substrate, read-out: qPCR-IVS-ATS GMean IC50 (nM) Ad2.1
[5] = Ad2.2 pre-mRNA substrate, read-out: qPCR-IVS-ATS GMean IC50 (nM) Ad2.2
[6] = 72 h, NCIH1568.1, -100% = cidal, 0% = static, 100% = uninhibited growth
[7] = NCI-H1568, read-out: CTGlo-ATS GMean GI50 (nM) 72 h NCIH1568.1, 72 h, NCIH1568.1
[8] = 72 h, PANC0504.1, -100% = cidal, 0% = static, 100% = uninhibited growth
[9] = Panc 05.04, read-out: CTGlo-ATS GMean GI50 (nM) 72 h PANC0504.1, 72 h, PANC0504.1
[10] = NCI-H1568, read-out: CTGlo-ATS GMean GI50 (nM) 72 h NCIH1568.1, NCIH1568.1 cells, 72 h
[11] = NCIH1568.1 cells, 72 h, −100% cidal, 0% static, 100% maximal growth
[12] = PANC0504.1 cells, 72 h, −100% cidal, 0% static, 100% maximal growth
[13] = Panc 05.04, read-out: CTGlo-ATS GMean GI50 (nM) 72 h PANC0504.1, PANC0504.1 cells, 72 h
[14] = NCI-H1568, 72 h, read-out: CTGlo-ATS GMean GI50 (nM) 72 h NCIH1568.1, NCIH1568.1 cells, 72 h
[15] = Panc 05.04, 72 h, read-out: CTGlo-ATS GMean GI50 (nM) 72 h PANC0504.1, PANC0504.1 cells, 72 h

| Structure (SMILES) | IC50 (SF3b complexes) [nM] | IC50 [1, 4] [nM] | IC50 [1, 5] [nM] | Ratio Ad2.1/2.2 [1] | CTGlo-ATS Mean MinResponse % 72 h NCIH1568.1 [2, 6] [%] | GI50 [2, 7] [nM] | CTGlo-ATS Mean MinResponse % 72 h PANC0504.1 [3, 8] [%] | GI50 [3, 9] [nM] | GI50 [2, 10] [nM] | CTGlo-ATS Mean MinResponse % 72 h NCIH1568.1 [2, 11] [%] | CTGlo-ATS Mean MinResponse % 72 h PANC0504.1 [3, 12] [%] | GI50 [3, 13] [nM] | GI50 [2, 14] [nM] | GI50 [3, 15] [nM] |
| --- | --- | --- | --- | --- | --- | --- | --- | --- | --- | --- | --- | --- | --- | --- |
| C/C(=C\c1cccc(S(=O)(=O)NC(C)C)c1)[C@H]1OC(=O)CC(O)CCC(C)[C@@H](OC(=O)N2CCN(C)CC2)/C=C/[C@@H]1C (stereo in doubt) [Compound 209, [(2S,3S,4E,6R,7R,10S)-10-hydroxy-3,7-dimethyl-12-oxo-2-[(E)-1-[3-(propan-2-ylsulfamoyl)phenyl]prop-1-en-2-yl]-1-oxacyclododec-4-en-6-yl] 4-methylpiperazine-1-carboxylate] | 4.78 | 3130 | 30 | 104.297 | −51.998 | 12.1 | −93.368 | 16.4 |  |  |  |  |  |  |
| C/C(=C\c1cc(C)cc2[nH]ncc12)[C@H]1OC(=O)C[C@H](O)CC[C@H](C)[C@@H](OC(=O)N2CCN(C)CC2)/C=C/[C@@H]1C [Compound 96] | 2.4 | > 25000 | 108 |  |  |  |  |  | 305 | −29.687 | −14.554 | 168 |  |  |
| C/C(=C\c1cccc(S(=O)(=O)NC(C)(C)CO)c1)[C@H]1OC(=O)C[C@H](O)CC[C@H](C)[C@@H](OC(=O)N2CCN(C)CC2)/C=C/[C@@H]1C [Compound 201, [(2S,3S,4E,6R,7S,10R)-10-hydroxy-2-[(E)-1-[3-[(1-hydroxy-2-methylpropan-2-yl)sulfamoyl]phenyl]prop-1-en-2-yl]-3,7-dimethyl-12-oxo-1-oxacyclododec-4-en-6-yl] 4-methylpiperazine-1-carboxylate] | 5.64 | 620 | 17.5 | 35.485 | −48.055 | 27.5 | −91.697 | 40.9 |  |  |  |  |  |  |
| C/C(=C\c1cc(F)cc(N2CCOCC2)c1)[C@H]1OC(=O)C[C@H](O)CC[C@@](C)(O)[C@@H](OC(=O)N2CCN(C)CC2)/C=C/[C@@H]1C [Compound 61] | 13.5 | > 25000 | 114 |  |  |  |  |  |  | −38.996 | −93.599 |  | 46.8 | 42 |
| C/C(=C\c1cc(F)cc(N2CCOCC2)c1)[C@H]1OC(=O)C[C@H](O)CC[C@H](C)[C@@H](OC(=O)N2CCN(C)[C@H](C)C2)/C=C/[C@@H]1C [Compound 23] | 4.23 | 369 | 28.3 |  |  |  |  |  | 10.8 | −64.974 | −90.781 | 10.4 |  |  |
| C/C(=C\c1cc(F)cc(N2CCOCC2)c1)C1OC(=O)C[C@H](O)CC[C@H](C)[C@@H](OC(=O)N2CCN(C3CCOCC3)CC2)/C=C/[C@@H]1C (some centres unmarked) [Compound 36] | 3.49 | 236 | 32.9 |  |  |  |  |  |  | −54.389 | −84.494 |  | 25.4 | 19 |
| C/C(=C\c1cc(F)c2nnn(CC3CC3)c2c1)[C@H]1OC(=O)C[C@H](O)CC[C@H](C)[C@@H](OC(=O)N2CCN(C)CC2)/C=C/[C@@H]1C [Compound 137] | 1.21 | 27.6 | 12.1 |  |  |  |  |  | 1.17 | −81.149 | −86.584 | 1.61 |  |  |
| C/C(=C\c1cc(F)cc(N2CC3CCC(C2)O3)c1)[C@H]1OC(=O)C[C@H](O)CC[C@H](C)[C@@H](OC(=O)N2CCN(C)CC2)/C=C/[C@@H]1C [Compound 32] | 3.24 | 19.5 | 16.2 |  |  |  |  |  | 10 | −74.701 | −69.289 | 6.53 |  |  |
| C/C(=C\c1cc(F)cc(N2CCN(CCO)CC2)c1)[C@H]1OC(=O)C[C@H](O)CC[C@H](C)[C@@H](OC(=O)N2CCC(N3CCCCC3)CC2)/C=C/[C@@H]1C [Compound 13] | 7.43 | 19.3 | 15.9 |  |  |  |  |  | 20.8 | −95.312 | −94.040 | 32.7 |  |  |
| C/C(=C\c1cccc(N(C)C2CCOCC2)c1)[C@H]1OC(=O)C[C@H](O)CC[C@H](C)[C@@H](OC(=O)N2CCN(C)CC2)/C=C/[C@@H]1C [Compound 170] | 4.93 | 11000 | 31 |  |  |  |  |  | 25.9 | −56.895 | −96.570 | 23.2 |  |  |
| CNS(=O)(=O)c1cccc(/C=C(\C)[C@H]2OC(=O)CC(O)CCC(C)[C@@H](OC(=O)N3CCN(C)CC3)/C=C/[C@@H]2C)c1 (stereo in doubt) [Compound 212, [(2S,3S,4E,6R,7R,10S)-10-hydroxy-3,7-dimethyl-2-[(E)-1-[3-(methylsulfamoyl)phenyl]prop-1-en-2-yl]-12-oxo-1-oxacyclododec-4-en-6-yl] 4-methylpiperazine-1-carboxylate] | 8.79 | > 25000 | 93.8 | 266.536 | −49.302 | 129 | −59.089 | 60.2 |  |  |  |  |  |  |
| C/C(=C\c1cc(F)cc(N2CCC[C@H]2C)c1)[C@H]1OC(=O)C[C@H](O)CC[C@H](C)[C@@H](OC(=O)N2CCN(C)CC2)/C=C/[C@@H]1C [Compound 41] | 8.26 | 221 | 39.2 |  |  |  |  |  |  | −77.375 | −82.009 |  | 21.4 | 15.8 |
| C/C(=C\c1cc(F)cc(N2CCN(S(C)(=O)=O)CC2)c1)[C@H]1OC(=O)C[C@H](O)CC[C@H](C)[C@@H](OC(=O)N2CCN(C)CC2)/C=C/[C@@H]1C [Compound 58] | 6.54 | 30.1 | 22 |  |  |  |  |  | 7 | −70.067 | −91.132 | 6.97 |  |  |
| C/C(=C\c1cccc(N2CCNCC2)c1)[C@H]1OC(=O)C[C@H](O)CC[C@H](C)[C@@H](OC(=O)N2CCN(C)CC2)/C=C/[C@@H]1C [Compound 1] | 19.8 | 28.9 | 18.7 |  |  |  |  |  | 61.2 | −71.582 | −79.550 | 54.8 |  |  |
| C/C(=C\c1cc(F)cc(N2CCN(C(=O)C3CCOC3)CC2)c1)[C@H]1OC(=O)C[C@H](O)CC[C@H](C)[C@@H](OC(=O)N2CCN(C)CC2)/C=C/[C@@H]1C (some centres unmarked) [Compound 143] | 3.2 | 19.2 | 17.2 |  |  |  |  |  |  | −84.803 | −87.719 |  | 1.75 | 3.67 |
| C/C(=C\c1cc(F)c2cnn(CC(=O)N3CCOCC3)c2c1)[C@H]1OC(=O)C[C@H](O)CC[C@H](C)[C@@H](OC(=O)N2CCN(C)CC2)/C=C/[C@@H]1C [Compound 130] | 37.1 | 43.9 | 30 |  |  |  |  |  | 12 | −72.458 | −93.452 | 18.3 |  |  |
| CNC(=O)Cn1ncc2c(F)cc(/C=C(\C)[C@H]3OC(=O)C[C@H](O)CC[C@H](C)[C@@H](OC(=O)N4CCN(C)CC4)/C=C/[C@@H]3C)cc21 [Compound 128] | 8.76 | 3350 | 18.1 |  |  |  |  |  | 25.7 | −62.651 | −96.227 | 44.2 |  |  |
